Measurements published in PubChem BioAssay (NCI).
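Grown in 96-well plates, cells were treated for 48 hours with each compound at five concentrations. Insufficient inhibition: endpoint recorded as highest concentration tested. Here, GI50 denotes the concentration required for 50% inhibition of growth. TGI marks complete inhibition of growth.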

How the values were obtained:
Experiment in all cases: DTP human tumour cell line panel, 48 h
ACHN renal = system: ACHN renal
MALME-3M melanoma = system: MALME-3M melanoma
OVCAR-8 ovarian = system: OVCAR-8 ovarian
NCI-H23 lung = system: NCI-H23 lung
PC-3 prostate = system: PC-3 prostate
LOX IMVI melanoma = system: LOX IMVI melanoma
OVCAR-4 ovarian = system: OVCAR-4 ovarian
SF-295 CNS = system: SF-295 CNS
HT29 colon = system: HT29 colon
CAKI-1 renal = system: CAKI-1 renal

COc1cc(OC)c2sc(-c3ccc(-n4cncc4-c4ccc(OC)c(OC)c4)cc3)nc2c1
GI50 (ACHN renal): > 100 µM
TGI (ACHN renal): > 100 µM
GI50 (MALME-3M melanoma): 59.9 µM
TGI (MALME-3M melanoma): > 100 µM
GI50 (OVCAR-8 ovarian): 21.2 µM
TGI (OVCAR-8 ovarian): > 100 µM
GI50 (NCI-H23 lung): > 100 µM
TGI (NCI-H23 lung): > 100 µM
GI50 (PC-3 prostate): 3660 nM
TGI (PC-3 prostate): > 100 µM
GI50 (LOX IMVI melanoma): > 100 µM
TGI (LOX IMVI melanoma): > 100 µM
GI50 (OVCAR-4 ovarian): 4.21 µM
TGI (OVCAR-4 ovarian): > 100 µM
GI50 (SF-295 CNS): 7 µM
TGI (SF-295 CNS): > 100 µM
GI50 (HT29 colon): 7130 nM
TGI (HT29 colon): > 100 µM

CCOC(=O)C1Cc2ccc3c4c(ccc(c24)C1)CC(C(=O)OCC)C3
TGI (ACHN renal): > 100 µM
TGI (MALME-3M melanoma): > 100 µM
TGI (OVCAR-8 ovarian): > 100 µM
TGI (NCI-H23 lung): > 100 µM
TGI (LOX IMVI melanoma): > 100 µM
TGI (SF-295 CNS): > 100 µM
TGI (HT29 colon): > 100 µM

CC1(C)COC2C(N(Cc3ccccc3)Cc3ccccc3)C(=O)N21 (configuration not stated)
TGI (ACHN renal): > 100 µM
TGI (CAKI-1 renal): > 100 µM
TGI (MALME-3M melanoma): > 100 µM
TGI (OVCAR-8 ovarian): > 100 µM
TGI (NCI-H23 lung): > 100 µM
TGI (LOX IMVI melanoma): > 100 µM
TGI (OVCAR-4 ovarian): > 100 µM
TGI (SF-295 CNS): 88.8 µM
TGI (HT29 colon): > 100 µM

C[N+](C)(C)CC1CCCCC1=O (configuration not stated)
TGI (ACHN renal): 34.4 µM
TGI (MALME-3M melanoma): 38.6 µM
TGI (OVCAR-8 ovarian): 41.1 µM
TGI (NCI-H23 lung): 40.8 µM
TGI (LOX IMVI melanoma): 27.5 µM
TGI (SF-295 CNS): > 100 µM
TGI (HT29 colon): 38.3 µM

CN(C)N1C(=O)SCC(c2ccccc2)(c2ccccc2)C1=O
TGI (ACHN renal): > 100 µM
TGI (CAKI-1 renal): > 100 µM
TGI (MALME-3M melanoma): > 100 µM
TGI (OVCAR-8 ovarian): > 100 µM
TGI (NCI-H23 lung): > 100 µM
TGI (PC-3 prostate): > 100 µM
TGI (LOX IMVI melanoma): > 100 µM
TGI (SF-295 CNS): > 100 µM
TGI (HT29 colon): > 100 µM

COc1ccc(-c2cnnn2-c2nonc2-n2cccc2)cc1OC
GI50 (ACHN renal): 7.8 µM
TGI (ACHN renal): > 100 µM
GI50 (CAKI-1 renal): 3390 nM
TGI (CAKI-1 renal): > 100 µM
GI50 (MALME-3M melanoma): 3.86 µM
TGI (MALME-3M melanoma): > 100 µM
GI50 (OVCAR-8 ovarian): 5.29 µM
TGI (OVCAR-8 ovarian): > 100 µM
GI50 (NCI-H23 lung): 4.09 µM
TGI (NCI-H23 lung): > 100 µM
GI50 (PC-3 prostate): 14100 nM
TGI (PC-3 prostate): > 100 µM
GI50 (OVCAR-4 ovarian): 18.6 µM
TGI (OVCAR-4 ovarian): > 100 µM
GI50 (SF-295 CNS): 3.94 µM
TGI (SF-295 CNS): 44.6 µM
GI50 (HT29 colon): 3310 nM
TGI (HT29 colon): > 100 µM

COc1ccc(C2=NC(=O)NC2c2ccc(OC)cc2)cc1 (configuration not stated)
GI50 (ACHN renal): 21.9 µM
TGI (ACHN renal): > 100 µM
GI50 (CAKI-1 renal): 2510 nM
TGI (CAKI-1 renal): 15.4 µM
GI50 (MALME-3M melanoma): 4.91 µM
TGI (MALME-3M melanoma): 68.3 µM
GI50 (OVCAR-8 ovarian): 29.6 µM
TGI (OVCAR-8 ovarian): > 100 µM
GI50 (NCI-H23 lung): 12.9 µM
TGI (NCI-H23 lung): 78.3 µM
GI50 (LOX IMVI melanoma): 12.4 µM
TGI (LOX IMVI melanoma): > 100 µM
GI50 (OVCAR-4 ovarian): 31.5 µM
TGI (OVCAR-4 ovarian): > 100 µM
GI50 (SF-295 CNS): 5.35 µM
TGI (SF-295 CNS): 47.5 µM
GI50 (HT29 colon): 3780 nM
TGI (HT29 colon): 27.9 µM

Cc1cc(NCc2cc(Nc3ccnc4cc(Cl)ccc34)ccc2F)nc(N2CCOCC2)n1
GI50 (CAKI-1 renal): 1520 nM
TGI (CAKI-1 renal): 3.21 µM
GI50 (OVCAR-8 ovarian): 3.07 µM
TGI (OVCAR-8 ovarian): 13.6 µM
GI50 (NCI-H23 lung): 2.43 µM
TGI (NCI-H23 lung): 7.28 µM
GI50 (PC-3 prostate): 2280 nM
TGI (PC-3 prostate): 7.65 µM
GI50 (HT29 colon): 2210 nM
TGI (HT29 colon): 5.68 µM

COC(=O)C(=O)C(CC(=O)Nc1ccc(C)cc1)C(=O)OC (configuration not stated)
TGI (ACHN renal): > 100 µM
TGI (CAKI-1 renal): > 100 µM
TGI (MALME-3M melanoma): > 100 µM
TGI (OVCAR-8 ovarian): > 100 µM
TGI (NCI-H23 lung): > 100 µM
TGI (LOX IMVI melanoma): > 100 µM
TGI (OVCAR-4 ovarian): > 100 µM
TGI (SF-295 CNS): > 100 µM
TGI (HT29 colon): > 100 µM

COc1ccc(O)c(C(=O)CCC(=O)O)c1
TGI (ACHN renal): > 100 µM
TGI (MALME-3M melanoma): > 100 µM
TGI (OVCAR-8 ovarian): > 100 µM
TGI (NCI-H23 lung): > 100 µM
TGI (LOX IMVI melanoma): > 100 µM
TGI (OVCAR-4 ovarian): > 100 µM
TGI (SF-295 CNS): > 100 µM
TGI (HT29 colon): > 100 µM

CC1=Nc2ccccc2SC(c2c(Cl)cccc2Cl)C1 (configuration not stated)
TGI (ACHN renal): 3.19 µM
TGI (CAKI-1 renal): 5.3 µM
TGI (MALME-3M melanoma): 3.29 µM
TGI (OVCAR-8 ovarian): 0.588 µM
TGI (NCI-H23 lung): 2.64 µM
TGI (LOX IMVI melanoma): 1.04 µM
TGI (OVCAR-4 ovarian): 4.56 µM
TGI (SF-295 CNS): 2.79 µM
TGI (HT29 colon): 1.57 µM

COc1ccc(Nc2nc(Nc3cc(C)[nH]n3)c3cc(OC)c(OC)cc3n2)cc1
GI50 (ACHN renal): 1.45 µM
TGI (ACHN renal): 2.78 µM
GI50 (CAKI-1 renal): 1590 nM
TGI (CAKI-1 renal): 2.95 µM
GI50 (MALME-3M melanoma): 1.65 µM
TGI (MALME-3M melanoma): 3.19 µM
GI50 (NCI-H23 lung): 1.16 µM
TGI (NCI-H23 lung): 2.82 µM
GI50 (LOX IMVI melanoma): 0.441 µM
TGI (LOX IMVI melanoma): 1.7 µM
GI50 (OVCAR-4 ovarian): 0.789 µM
TGI (OVCAR-4 ovarian): 2.22 µM
GI50 (SF-295 CNS): 1.33 µM
TGI (SF-295 CNS): 2.68 µM

CC(C)(C)NCC(O)COc1c(Br)c(Br)c(Br)c2c1OC(C)(C)C2 (configuration not stated)
GI50 (ACHN renal): 1.9 µM
TGI (ACHN renal): 3.35 µM
GI50 (CAKI-1 renal): 1710 nM
TGI (CAKI-1 renal): 3.22 µM
GI50 (MALME-3M melanoma): 1.71 µM
TGI (MALME-3M melanoma): 3.24 µM
GI50 (PC-3 prostate): 1660 nM
TGI (PC-3 prostate): 3.18 µM
GI50 (LOX IMVI melanoma): 1.68 µM
TGI (LOX IMVI melanoma): 3.1 µM
GI50 (SF-295 CNS): 2.26 µM
TGI (SF-295 CNS): 3.95 µM
GI50 (HT29 colon): 1340 nM
TGI (HT29 colon): 2.75 µM

Clc1ccccc1CN1COc2c(ccc3cccnc23)C1
TGI (ACHN renal): 13.2 µM
TGI (CAKI-1 renal): 12.8 µM
TGI (MALME-3M melanoma): 16.3 µM
TGI (OVCAR-8 ovarian): 15.3 µM
TGI (NCI-H23 lung): 5.34 µM
TGI (LOX IMVI melanoma): 22.5 µM
TGI (OVCAR-4 ovarian): 14.6 µM
TGI (SF-295 CNS): 10.6 µM

COC(=O)C(C(=O)C(=O)Nc1ccc(C)cc1C)c1csc(-n2nc(-c3ccccc3)cc2-c2ccccc2)n1 (configuration not stated)
TGI (ACHN renal): > 100 µM
TGI (CAKI-1 renal): > 100 µM
TGI (MALME-3M melanoma): > 100 µM
TGI (OVCAR-8 ovarian): > 100 µM
TGI (NCI-H23 lung): > 100 µM
TGI (LOX IMVI melanoma): > 100 µM
TGI (OVCAR-4 ovarian): > 100 µM
TGI (HT29 colon): > 100 µM

C=C(CN1CCc2c([nH]c3ccccc23)C1)c1ccc(C(=O)Nc2ccccc2N)cc1
GI50 (ACHN renal): 1.74 µM
TGI (ACHN renal): 10.4 µM
GI50 (CAKI-1 renal): 1670 nM
TGI (CAKI-1 renal): 8.25 µM
GI50 (OVCAR-8 ovarian): 1.9 µM
TGI (OVCAR-8 ovarian): 14.7 µM
GI50 (NCI-H23 lung): 3.73 µM
TGI (NCI-H23 lung): 19.9 µM
GI50 (PC-3 prostate): 1410 nM
TGI (PC-3 prostate): 29.9 µM
GI50 (LOX IMVI melanoma): 4.52 µM
TGI (LOX IMVI melanoma): 10.2 µM
GI50 (OVCAR-4 ovarian): 5.48 µM
TGI (OVCAR-4 ovarian): 13.5 µM
GI50 (SF-295 CNS): 16.6 µM
TGI (SF-295 CNS): 27.8 µM

CC(=O)/C=C/c1ccc(Nc2c3ccccc3nc3occ(Cl)c23)cc1
GI50 (ACHN renal): 3.32 µM
TGI (ACHN renal): 12.5 µM
GI50 (CAKI-1 renal): 159 nM
TGI (CAKI-1 renal): 1.07 µM
GI50 (MALME-3M melanoma): 6.48 µM
TGI (MALME-3M melanoma): 24.9 µM
GI50 (OVCAR-8 ovarian): 2.03 µM
TGI (OVCAR-8 ovarian): 4.64 µM
GI50 (NCI-H23 lung): 3.1 µM
TGI (NCI-H23 lung): 13.2 µM
GI50 (PC-3 prostate): 2630 nM
TGI (PC-3 prostate): 18.8 µM
GI50 (OVCAR-4 ovarian): 4.35 µM
TGI (OVCAR-4 ovarian): 30.2 µM
GI50 (HT29 colon): 2580 nM
TGI (HT29 colon): > 100 µM

CC1CC2(S(=O)(=O)c3ccccc3)ON1CC2S(=O)(=O)c1ccccc1 (configuration not stated)
TGI (ACHN renal): > 100 µM
TGI (CAKI-1 renal): > 100 µM
TGI (MALME-3M melanoma): > 100 µM
TGI (OVCAR-8 ovarian): > 100 µM
TGI (NCI-H23 lung): > 100 µM
TGI (LOX IMVI melanoma): > 100 µM
TGI (OVCAR-4 ovarian): > 100 µM
TGI (SF-295 CNS): > 100 µM
TGI (HT29 colon): > 100 µM
